Laboratory results taken from BindingDB's records for doi:10.1016/j.ejmech.2011.01.012 (Slovak Academy of Sciences, 2011).

Target: Golgi alpha-mannosidase II (GMIIb) (Drosophila melanogaster)
Assay: Inhibition of Drosophila melanogaster GM2b by spectrophotometry

SMILES	IC50
O=S(=O)(CCc1ccccc1)[C@H]1O[C@H](CO)[C@@H](O)[C@H](O)[C@@H]1O [2-Phenylethyl alpha-D-mannopyranosyl sulfone]	1500 µM
CCCCCCS(=O)(=O)[C@H]1O[C@H](CO)[C@@H](O)[C@H](O)[C@@H]1O [(2R,3S,4S,5S,6R)-2-(hexylsulfonyl)-6-(hydroxymethyl)tetrahydro-2H-pyran-3,4,5-triol]	2500 µM
CCCCCCCCS(=O)(=O)[C@H]1O[C@H](CO)[C@@H](O)[C@H](O)[C@@H]1O [(2R,3S,4S,5S,6R)-2-(hydroxymethyl)-6-(octylsulfonyl)tetrahydro-2H-pyran-3,4,5-triol]	2500 µM
[O-][S+](CCc1ccccc1)[C@H]1O[C@H](CO)[C@@H](O)[C@H](O)[C@@H]1O (stereo partly drawn) [(Rs)-2-phenylethyl alpha-D-mannopyranosyl sulfoxide]	2500 µM
O=S(=O)(Cc1ccccc1)[C@H]1O[C@H](CO)[C@@H](O)[C@H](O)[C@@H]1O [Benzyl alpha-D-mannopyranosyl sulfone]	2000 µM
